Test results as given in patent CN105777727A, “2-噻吩吡啶类化合物及其用途” (Shenyang Sinochem Agrochemicals R&D Co Ltd, priority 2014, dated 2016).

System: cucumber anthracnose (黄瓜炭疽病)
Experiment: In vivo protective activity against cucumber anthracnose (potted plants, inoculation 24 h after spraying)

In the case of `O=C(NCCc1ccc(F)cc1)c1ccc(-c2cccs2)nc1CCl` [24.3], the control effect (6.5 mg/L) is reported as 98%, the control effect (25 mg/L) is reported as 100% and the control effect (100 mg/L) is reported as over 98%. It also gave a control effect (400 mg/L) of 100%.
